Reference: paper PMC9356783, “Succinimide Derivatives as Antioxidant Anticholinesterases, Anti-α-Amylase, and Anti-α-Glucosidase: In Vitro and In Silico Approaches” (Evidence-based Complementary and Alternative Medicine : eCAM, 2022)
Several values for one entry are separate records, joined by “and”; a condition that tells them apart may be missing. Equal entries are not always repeated.

What was measured:
[1] = molecular target: α-glucosidase (Saccharomyces cerevisiae, UniProt P53341); assay: α-Glucosidase inhibitory assay; format: biochemical
Description: In this assay, glucopyranoside is added to the solvent (phosphate buffer). Various concentrations of the synthetized compounds like 500, 250, 125, 62.5, and 31.25 µg/ml were used for preparing the sample solutions. Glucosidase in distilled water (0.5 µg/ml) was added to the above mixture. This mixture was then incubated for 20 minutes at 37°C [36]. After the incubation period, the reaction mixture was ceased by the addition of hydrochloric acid. The color intensity was determined at 540 nm wavelength using a spectrophotometer. The formula which was used to determine percentage inhibition is:(3) Percent Inhibition=AbsorbanceControl−AbsorbanceSample/Absorbance Control×100.

[2] = molecular target: T1, α-amylase (Sus scrofa, UniProt P00690); assay: In vitro α-amylase inhibition assay; format: biochemical
T1 sequence (P00690 16-511): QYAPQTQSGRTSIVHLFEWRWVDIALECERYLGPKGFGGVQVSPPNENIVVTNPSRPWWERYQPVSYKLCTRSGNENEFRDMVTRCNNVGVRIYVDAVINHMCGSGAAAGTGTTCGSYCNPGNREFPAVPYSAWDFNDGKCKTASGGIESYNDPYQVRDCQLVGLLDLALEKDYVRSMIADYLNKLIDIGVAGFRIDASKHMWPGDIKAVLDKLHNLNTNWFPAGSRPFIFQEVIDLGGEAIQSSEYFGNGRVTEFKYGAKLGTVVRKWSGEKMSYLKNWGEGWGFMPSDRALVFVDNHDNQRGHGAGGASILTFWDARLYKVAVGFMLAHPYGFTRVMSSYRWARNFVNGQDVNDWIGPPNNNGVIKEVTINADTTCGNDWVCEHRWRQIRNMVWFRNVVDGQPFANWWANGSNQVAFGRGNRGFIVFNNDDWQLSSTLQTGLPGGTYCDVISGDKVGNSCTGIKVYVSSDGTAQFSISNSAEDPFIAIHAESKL
Description: In this assay, previously documented protocols were used. […] Starch solution was then mixed with the above solution and then incubated for about 20 minutes at 37°C. After incubation, the reactant mixture was then kept in a water bath for some time at 100°C. Color intensity was measured using a microplate reader at 656 nm. To determine percentage inhibition, the following formula was used:(4) Percent Inhibition=AbsorbanceControl−AbsorbanceSample/Absorbance Control×100.

[3] = DPPH radical scavenging assay; details: for IC50: read-out: DPPH free radicals scavenging IC50
Description: A previously reported method for DPPH radical scavenging activity was used to determine the anti-oxidant activity of the synthetic compounds with insignificant modification. A solution of DPPH, e.g., (50 µL of 1.0 × 10^−3 M), was prepared freshly and then added to CH3OH (methyl alcohol). A solvent like methanol was used as a control group. The mixture was then incubated for 30 minutes at 25°C. A spectrophotometer is used to calculate the DPPH free radicals at specific wavelength like 517 nm. After the incubation period, Trolox (drug) was used as the control group (positive). The anti-oxidant activity was determined using the following formula:(1) Percent Inhibition=Absorbancecontrol−Absorbancetest sample/Absorbancecontrol×100.

[4] = ABTS radical scavenging assay; details: for IC50: read-out: ABTS free radicals scavenging IC50
Description: A previously reported method for ABTS radical scavenging assay was used to determine the anti-oxidant activity of the synthetic compounds with negligible modification. The stock solution was prepared, e.g., 7 mM ABTS solution and 2.4 mM of potassium persulfate solution, and then mixed in equal amounts for about 16 hours. The stock solution was then diluted with methyl alcohol. Using a spectrophotometer, the absorption (0.7 ± 0.02) units at 734 nm wavelength were identified. In this assay, the solution was prepared freshly. The ABTS solution (150 µl) was mixed with the synthesized compounds (50 µl) and then reserved in darkness for about 10 minutes. The same procedure was repeated 3 times and then the results were verified using mean ± standard deviation. A solvent, e.g., methanol, was used as blank and the standard (butyl hydroxytoluen in methanol) were run at the same time. The absorbance was checked at a wavelength of 734 nm by utilizing a microplate reader.

[5] = molecular target: T2, acetylcholinesterase (AChE) (Electrophorus electricus, UniProt O42275); assay: biochemical; format: biochemical
T2 construct: (AChE) acetylcholinesterase from electric eel; purchased Sigma Aldrich (local seller); host or cells: electric eel (natural source)
Description: (§1) In Ellman's test, enzymes like (BChE) butyrylcholinesterase from equine serum and (AChE) acetylcholinesterase from electric eel were designated for studying the enzyme inhibitory capacity of the new synthesized compounds [33, 34].
(§2) Synthetic compounds in concentration ranging from 31.25 to 500 µg/ml, KH2PO4 (13.6 g/L) and K2HPO4 (17.4 g/L), were dissolved in 0.1 M phosphate buffer solution. After mixing, they were combined in 6 and 94% ratio, to make 0.1 M and 8.0 phosphate buffer solutions having […]. Potassium hydroxide was used to change the pH. The freshly prepared buffer […], AChE (518 U/mg solid), and BChE (7–16 U/mg) were diluted to achieve final absolute concentrations of 0.01 U/ml and 0.03 U/ml, respectively. In distilled water, BChI (0.0005 M), DTNB iedithio bis-nitrobenzoic acid solution (0.0002273 M), and AChI were prepared and then kept in the refrigerator [35].
(§3) After that, the substrate solution (5 μl) was added into the solution present in mixture form and was held in a water bath for 15 minutes at 30°C. Absorbance was measured at 412 nm using a double beam spectrophotometer. […] At 30°C, the absorbance and the time of the reaction were measured at 30°C for four minutes and repeated three times.

[6] = molecular target: T3, butyrylcholinesterase (BChE) (Equus caballus, UniProt P81908); assay: biochemical; format: biochemical
T3 construct: (BChE) butyrylcholinesterase from equine serum; purchased Sigma Aldrich (local seller); host or cells: equine serum (natural source)
Description: as §1, §2, §3

[7] = 500 μmol/mL (first value of the series)
[8] = first value of series, concentration not given (method 31.25 to 500 µg/ml)
[9] = fifth value of series, presumably 31.25
[10] = fourth value of series, presumably 62.5
[11] = second value of series, presumably 250
[12] = third value of series, presumably 125

T3 sequence (P81908 whole entry): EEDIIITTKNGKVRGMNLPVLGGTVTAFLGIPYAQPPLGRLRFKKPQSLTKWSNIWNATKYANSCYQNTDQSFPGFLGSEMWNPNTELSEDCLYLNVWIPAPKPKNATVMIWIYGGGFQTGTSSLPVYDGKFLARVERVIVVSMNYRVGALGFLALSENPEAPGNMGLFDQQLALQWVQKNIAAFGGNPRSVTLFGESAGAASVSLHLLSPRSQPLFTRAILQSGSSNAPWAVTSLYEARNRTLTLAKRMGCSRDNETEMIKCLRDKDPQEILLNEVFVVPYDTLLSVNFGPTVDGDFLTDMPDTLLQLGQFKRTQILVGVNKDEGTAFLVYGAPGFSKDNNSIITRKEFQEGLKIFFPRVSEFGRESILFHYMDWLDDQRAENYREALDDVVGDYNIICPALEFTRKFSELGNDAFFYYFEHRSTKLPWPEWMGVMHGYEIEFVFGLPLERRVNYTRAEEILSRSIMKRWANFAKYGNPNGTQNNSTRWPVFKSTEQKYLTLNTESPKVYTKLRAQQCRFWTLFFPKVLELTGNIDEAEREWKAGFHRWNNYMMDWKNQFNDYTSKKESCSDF
T2 sequence (O42275 24-633): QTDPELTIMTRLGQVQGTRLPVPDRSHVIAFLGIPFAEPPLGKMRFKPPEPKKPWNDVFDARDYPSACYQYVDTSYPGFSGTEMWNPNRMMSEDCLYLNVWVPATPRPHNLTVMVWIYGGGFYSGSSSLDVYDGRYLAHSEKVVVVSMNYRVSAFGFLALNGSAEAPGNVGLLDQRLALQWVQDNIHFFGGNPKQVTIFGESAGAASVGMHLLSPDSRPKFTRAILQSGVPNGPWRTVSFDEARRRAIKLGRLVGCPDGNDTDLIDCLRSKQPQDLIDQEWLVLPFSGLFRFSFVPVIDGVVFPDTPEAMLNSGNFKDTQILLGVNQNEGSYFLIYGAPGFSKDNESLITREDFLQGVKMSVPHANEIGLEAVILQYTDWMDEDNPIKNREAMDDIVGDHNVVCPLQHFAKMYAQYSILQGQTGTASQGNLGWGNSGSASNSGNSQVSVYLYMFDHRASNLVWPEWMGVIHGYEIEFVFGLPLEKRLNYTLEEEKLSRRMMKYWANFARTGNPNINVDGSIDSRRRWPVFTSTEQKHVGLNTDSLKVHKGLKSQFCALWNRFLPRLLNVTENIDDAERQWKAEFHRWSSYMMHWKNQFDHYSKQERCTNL
Sequence of α-glucosidase (P53341 whole entry): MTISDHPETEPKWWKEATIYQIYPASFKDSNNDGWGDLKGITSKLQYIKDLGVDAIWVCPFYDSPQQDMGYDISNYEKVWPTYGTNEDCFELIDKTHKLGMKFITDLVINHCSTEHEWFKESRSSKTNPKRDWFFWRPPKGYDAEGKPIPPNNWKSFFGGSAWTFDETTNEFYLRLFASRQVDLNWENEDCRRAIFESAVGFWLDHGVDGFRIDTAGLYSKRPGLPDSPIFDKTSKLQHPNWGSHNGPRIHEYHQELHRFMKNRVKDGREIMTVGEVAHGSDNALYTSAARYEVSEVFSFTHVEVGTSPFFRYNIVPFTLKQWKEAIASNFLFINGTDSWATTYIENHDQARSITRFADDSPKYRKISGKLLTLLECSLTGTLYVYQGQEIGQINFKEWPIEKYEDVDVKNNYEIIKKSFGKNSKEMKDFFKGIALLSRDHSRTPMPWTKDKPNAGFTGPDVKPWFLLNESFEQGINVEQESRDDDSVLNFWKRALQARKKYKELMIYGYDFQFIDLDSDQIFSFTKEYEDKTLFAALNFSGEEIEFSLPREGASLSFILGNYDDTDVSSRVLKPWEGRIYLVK

For C[C@H]1O[C@H](O[C@H]2[C@H](O)[C@@H](O)[C@@H](O[C@H]3[C@H](O)[C@@H](O)C(O)O[C@@H]3CO)O[C@@H]2CO)[C@H](O)[C@@H](O)[C@@H]1N[C@H]1C=C(CO)[C@@H](O)[C@H](O)[C@H]1O (some centres unmarked) [Acarbose], which α-glucosidase % inhibition ([1]; 31.25 µmol/mL) is on record?
The α-glucosidase % inhibition was 71.22 ± 0.47%.

What about the α-glucosidase % inhibition ([1]; 62.5 µmol/mL) of the same compound?
Its α-glucosidase % inhibition is 76.44 ± 0.28%.

What about the α-glucosidase % inhibition ([1]; 125 µmol/mL) of the same compound?
The α-glucosidase % inhibition was 80.90 ± 1.11%.

What about the α-glucosidase % inhibition ([1]; 250 µmol/mL) of the same compound?
Its α-glucosidase % inhibition is 85.03 ± 2.16%.

And the α-glucosidase % inhibition ([1]; 500 µmol/mL)?
The α-glucosidase % inhibition was 94.40 ± 0.03%.

What about the α-amylase percent inhibition ([2]; 31.25 µmol/mL) of the same compound?
Its α-amylase percent inhibition is 75.45 ± 0.90%.

What about the α-amylase percent inhibition ([2]; 62.5 µmol/mL) of the same compound?
The α-amylase percent inhibition was 77.61 ± 0.43%.

What about the α-amylase percent inhibition ([2]; 125 µmol/mL) of the same compound?
Its α-amylase percent inhibition is 82.40 ± 0.20%.

What about the α-amylase percent inhibition ([2]; 500 µmol/mL) of the same compound?
Its α-amylase percent inhibition is 91.90 ± 0.96%.

Which results are given for O=C1O[C@H]([C@@H](O)CO)C(O)=C1O [Ascorbic acid, reference compound]?
percent radical scavenging (DPPH) ([3]; 31.25 μmol/mL (fifth value)): 86.42 ± 0.43%; percent radical scavenging (DPPH) ([3]; 62.5 μmol/mL (fourth value)): 88.22 ± 1.28%; percent radical scavenging (DPPH) ([3]; 125 μmol/mL (third value)): 91.52 ± 0.66%; percent radical scavenging (DPPH) ([3]; 250 μmol/mL (second value)): 93.56 ± 0.45%; percent radical scavenging (DPPH) [3, 7]: 98.65 ± 1.32%; IC50 [3]: 6.25 µM; IC50 [4]: 4.66 µM

With O=C1CCCCC1C1CC(=O)N(c2ccccc2)C1=O (centres unmarked) [MSJ1, 3-(2-oxocyclohexyl)-1-phenylpyrrolidine-2,5-dione] as the compound, how does the IC50 [3] read?
Its IC50 is 34.6 µM.

And the IC50 [4]?
Its IC50 is 29.4 µM.

For O=C1CCCCC1C1CC(=O)N(Cc2ccccc2)C1=O (centres unmarked) [MSJ2, 1-benzyl-3-(2-oxocyclohexyl) pyrrolidine-2,5-dione], which “percent anti-AChE potential” value [5, 8] is on record?
The value was 91.90%.

And the “percent anti-BChE potential” value [6, 8]?
The value was 97.30%.

What about the “percent radical scavenging (DPPH)” value ([3]; 31.25 μmol/mL (fifth value)) of the same compound?
Its value is 73.45 ± 0.65%.

What about the “percent radical scavenging (DPPH)” value ([3]; 62.5 μmol/mL (fourth value)) of the same compound?
The value was 78.23 ± 0.44%.

What about the “percent radical scavenging (DPPH)” value ([3]; 125 μmol/mL (third value)) of the same compound?
The value was 81.50 ± 0.61%.

What about the “percent radical scavenging (DPPH)” value ([3]; 250 μmol/mL (second value)) of the same compound?
Its value is 84.47 ± 0.46%.

And the “percent radical scavenging (DPPH)” value [3, 7]?
Its value is 86.47 ± 0.70%.

What about the IC50 [3] of the same compound?
The IC50 was 2.59 µM.

And the “percent inhibitions (ABTS)” value ([4]; 31.25 µmo/mL (fifth value))?
Its value is 74.65 ± 1.34%.

And the IC50 [4]?
Its IC50 is 7.32 µM.

Which IC50 [3] does the source give for O=C1CCCCC1C1CC(=O)N(c2ccc(Br)cc2)C1=O (centres unmarked) [MSJ3, 1-(4-bromophenyl)-3-(2-oxocyclohexyl) pyrrolidine-2,5-dione] here?
The IC50 was 33.5 µM.

What about the IC50 [4] of the same compound?
The IC50 was 24 µM.

For CC1CCC(=O)C(C2CC(=O)N(c3ccccc3)C2=O)C1 (centres unmarked) [MSJ4, 3-(5-methyl-2-oxocyclohexyl)-1-phenylpyrrolidine-2,5-dione], which IC50 [3] is on record?
Its IC50 is 32 µM.

What about the IC50 [4] of the same compound?
Its IC50 is 48.7 µM.

Which results are given for CC1CCC(=O)C(C2CC(=O)N(Cc3ccccc3)C2=O)C1 (centres unmarked) [MSJ5, 1-benzyl-3-(5-methyl-2-oxocyclohexyl)pyrrolidine-2,5-dione]?
IC50 [3]: 39 µM; IC50 [4]: 51.2 µM

Which IC50 [3] does the source give for O=C1CCOCC1C1CC(=O)N(c2ccccc2)C1=O (centres unmarked) [MSJ6, 3-(4-oxotetrahydro-2H-pyran-3-yl)-1-phenylpyrrolidine-2,5-dione] here?
Its IC50 is 44.9 µM.

What about the IC50 [4] of the same compound?
The IC50 was 55.1 µM.

For O=C1CCCCCC1C1CC(=O)N(c2ccccc2)C1=O (centres unmarked) [MSJ7, 3-(2-oxocycloheptyl)-1-phenylpyrrolidine-2,5-dione], which IC50 [3] is on record?
Its IC50 is 31.4 µM.

What about the IC50 [4] of the same compound?
The IC50 was 36.3 µM.

Which IC50 [3] does the source give for O=C1CCCC1C1CC(=O)N(c2ccccc2)C1=O (centres unmarked) [MSJ8, 3-(2-oxocyclopentyl)-1-phenylpyrrolidine-2,5-dione] here?
Its IC50 is 29.2 µM.

And the IC50 [4]?
Its IC50 is 25.2 µM.

With CC(=O)CC1CC(=O)N(c2ccccc2)C1=O (centres unmarked) [MSJ9, 3-(2-oxopropyl)-1-phenylpyrrolidine-2,5-dione] as the compound, how does the IC50 [3] read?
Its IC50 is 53 µM.

What about the IC50 [4] of the same compound?
Its IC50 is 38.1 µM.

What does the source list for CC(=O)C(C)(C)C1CC(=O)N(c2ccccc2)C1=O (centres unmarked) [MSJ10, 3-(2-methyl-3-oxobutan-2-yl)-1-phenylpyrrolidine-2,5-dione]?
percent anti-AChE potential [5, 9]: 78.58 ± 1.12%; percent anti-AChE potential [5, 8]: 93.20% and 93.20 ± 0.10%; percent anti-AChE potential [5, 10]: 83.40 ± 0.25%; IC50 ([5]; read-out: IC50 against AChE): 4.97 µM; percent anti-AChE potential [5, 11]: 90.09 ± 0.32%; percent anti-AChE potential [5, 12]: 88.67 ± 1.20%; percent anti-BChE potential [6, 9]: 73.89 ± 0.49%; percent anti-BChE potential [6, 8]: 91.36% and 91.36 ± 0.39%; percent anti-BChE potential [6, 10]: 78.26 ± 0.43%; IC50 ([6]; read-out: IC50 against BChE): 10.7 µM; percent anti-BChE potential [6, 11]: 87.15 ± 1.07%; percent anti-BChE potential [6, 12]: 83.00 ± 0.44%; percent radical scavenging (DPPH) ([3]; 62.5 μmol/mL (fourth value)): 79.67 ± 0.61%; percent radical scavenging (DPPH) ([3]; 125 μmol/mL (third value)): 85.79 ± 0.63%; percent radical scavenging (DPPH) ([3]; 250 μmol/mL (second value)): 90.90 ± 0.48%; IC50 [3]: 2.52 µM; percent inhibitions (ABTS) ([4]; 62.5 µmo/mL (fourth value)): 79.67 ± 0.61%; percent inhibitions (ABTS) ([4]; 125 µmo/mL (third value)): 85.79 ± 0.63%; percent inhibitions (ABTS) ([4]; 250 µmo/mL (second value)): 90.90 ± 0.48%; IC50 [4]: 3.29 µM
